Data on 30 compounds can be found in patent US20060116390A1, “Hepatitis c virus inhibitors” (priority 2003, published 2006).

The experiment concerns HCV proteins in Rep5.1 cells (replicon cell line). The experiment can be described thus: Inhibitory activity of HCV: cell-based ELISA in replicon cell line Rep5.1 (decrease of HCV proteins). More on the design: species or system hepatitis C virus. The essentials: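 Rep5.1 replicon cells (5000/well, DMEM-10 with 500 μg/ml G418) were given serially diluted drug 4 h after seeding. After 72 h, cells were fixed in methanol/acetone and HCV proteins detected by cell-based ELISA using replicon-specific patient plasma antibodies. IC50 is the concentration giving 50% protein decrease versus the no-drug control.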
For orientation: An ELISA detects its analyte on a solid surface through an enzyme-linked reagent.

Where [1] appears, read: Hepatitis C virus, 72 h, Rep5.1 cells, 72 hours with drug, concentration at which 50% of HCV proteins was decreased, Table 2, read-out: IC50.
The mark [2] stands for this setting: Hepatitis C virus, 72 h, Rep5.1 cells, 72 hours with drug, decrease of HCV proteins measured by HCV antibody, Table 1, read-out: Level (IC50 values classified).
Setting [3] is: Rep5.1 cells, 72 hours with drug, concentration at which 50% of HCV proteins was decreased, Table 2, read-out: IC50.

Where a name gives a salt, the structure may show the parent alone. Read-outs that look alike come from different tables or passages of the source.

For `CC1=C(C(=O)OCC2CCCCC2)CNC(=S)N1` [Compound 29, 6-methyl-2-thioxo-1,2,3,4-tetrahydro-pyrimidine-5-carboxylic acid cyclohexylmethyl ester], the half-maximal inhibitory concentration (IC50) (commonly the concentration that inhibits the measured activity by half) is, setting by setting: under setting [1], 300 nM; under setting [2], below 1000 nM. Consider `CC1=C(C(=O)OCCc2cccc([N+](=O)[O-])c2)C(COC(=O)c2ccccc2)NC(=S)N1` (stereo not shown) [89″, 4-benzoyloxymethyl-6-methyl-2-thioxo-1,2,3,4-tetrahydro-pyrimidine-5-carboxylic acid 2-(3-nitro-phenyl)-ethyl ester], for which the IC50 runs as follows: under setting [1], 6800 nM; under setting [2], 1000 to 10000 nM. For `CCc1ccc(COC(=O)C2=C(C)NC(=S)NC2)s1` [Compound 205, 6-methyl-2-thioxo-1,2,3,4-tetrahydro-pyrimidine-5-carboxylic acid 5-ethyl-thiophen-2-ylmethyl ester], the 50% inhibitory concentration (IC50) by setting is: under setting [1], 1800 nM; under setting [2], 1000 to 10000 nM. On to `CC1=C(C(=O)OCCCc2cccc(OC(F)(F)F)c2)CNC(=S)N1` [Compound 106, 6-methyl-2-thioxo-1,2,3,4-tetrahydro-pyrimidine-5-carboxylic acid 3-(3-trifluoromethoxy-phenyl)-propyl ester], for which the IC50 was below 400 nM under setting [1] and below 1000 nM under setting [2]. Regarding `CSc1ccc(CCCOC(=O)C2=C(C)NC(=S)NC2)cc1` [Compound 105, 6-methyl-2-thioxo-1,2,3,4-tetrahydro-pyrimidine-5-carboxylic acid 3-(4-methylsulfanyl-phenyl)-propyl ester], the IC50 reads like this: under setting [1], below 400 nM; under setting [2], below 1000 nM.

Regarding `CC1=C(C(=O)OCc2cc3ccccc3s2)CNC(=S)N1` [Compound 219, 6-methyl-2-thioxo-1,2,3,4-tetrahydro-pyrimidine-5-carboxylic acid benzo[b]thiophen-2-ylmethyl ester], the IC50 is below 400 nM under setting [1] and below 1000 nM under setting [2]. As to `CC1=C(C(=O)OCc2cc(Cl)cc(Cl)c2)CNC(=S)N1` [Compound 131, 6-methyl-2-thioxo-1,2,3,4-tetrahydro-pyrimidine-5-carboxylic acid 3,5-dichloro-benzyl ester], the 50% inhibitory concentration (IC50) under setting [1] was below 400 nM and the half-inhibitory concentration (IC50) under setting [2] was below 1000 nM. For the compound `CC1=C(C(=O)OCc2cc([N+](=O)[O-])ccc2Cl)C(CF)NC(=S)N1` (stereo not shown) [83′, 4-fluoromethyl-6-methyl-2-thioxo-1,2,3,4-tetrahydro-pyrimidine-5-carboxylic acid 2-chloro-5-nitro-benzyl ester], the IC50 was 5700 nM under setting [1] and 1000 to 10000 nM under setting [2]. With `CC1=C(C(=O)OCC#Cc2cccs2)CNC(=S)N1` [Compound 239, 6-methyl-2-thioxo-1,2,3,4-tetrahydro-pyrimidine-5-carboxylic acid 3-thiophen-2-yl-prop-2-inyl ester], under setting [3], the half-maximal inhibitory concentration (IC50) is below 400 nM. On to `CC1=C(C(=O)OCc2cc3ccsc3s2)CNC(=S)N1` [Compound 235, 6-methyl-2-thioxo-1,2,3,4-tetrahydro-pyrimidine-5-carboxylic acid thieno[2,3-b]thiophen-2-ylmethyl ester], for which the 50% inhibitory concentration (IC50) runs as follows: under setting [1], 900 nM; under setting [2], below 1000 nM.

`CCc1ccc(CCOC(=O)C2=C(C)NC(=S)NC2CO)cc1F` (stereo not shown) [72″, 4-hydroxymethyl-6-methyl-2-thioxo-1,2,3,4-tetrahydro-pyrimidine-5-carboxylic acid 2-(4-ethyl-3-fluoro-phenyl)-ethyl ester]: the concentration for half-maximal inhibition (IC50) by setting is: under setting [1], 400 nM; under setting [2], below 1000 nM. Regarding `CC1=C(C(=O)OC2CCc3c2csc3Cl)CNC(=S)N1` (stereo not shown) [21′, 6-methyl-2-thioxo-1,2,3,4-tetrahydro-pyrimidine-5-carboxylic acid 1-chloro-5,6-dihydro-4H-cyclopenta[c]thiophen-4-yl ester], the half-maximal inhibitory concentration (IC50) is, setting by setting: under setting [1], 400 nM; under setting [2], below 1000 nM. As to `CC1=C(C(=O)OCCc2ccsc2)C(CO)NC(=S)N1` (stereo not shown) [3″, 4-hydroxymethyl-6-methyl-2-thioxo-1,2,3,4-tetrahydro-pyrimidine-5-carboxylic acid 2-thiophen-3-yl-ethyl ester], the concentration for half-maximal inhibition (IC50) by setting is: under setting [1], 9000 nM; under setting [2], 1000 to 10000 nM.

In the case of `C=CCOCC#CCOC(=O)C1=C(C)NC(=S)NC1` [Compound 245, 6-methyl-2-thioxo-1,2,3,4-tetrahydro-pyrimidine-5-carboxylic acid 4-allyloxy-but-2-inyl ester], the IC50 under setting [3] was determined as 2700 nM. As for `CC1=C(C(=O)OCc2cc(Br)cs2)CNC(=S)N1` [Compound 204, 6-methyl-2-thioxo-1,2,3,4-tetrahydro-pyrimidine-5-carboxylic acid 4-bromo-thiophen-2-ylmethyl ester], the IC50 is, setting by setting: under setting [1], below 400 nM; under setting [2], below 1000 nM. On to `CC1=C(C(=O)OCCc2ccccc2Cl)C(CO)NC(=S)N1` (stereo not shown) [41″, 4-hydroxymethyl-6-methyl-2-thioxo-1,2,3,4-tetrahydro-pyrimidine-5-carboxylic acid 2-(2-chloro-phenyl)-ethyl ester], for which the IC50 under setting [1] is 7200 nM and the IC50 under setting [2] lay in the range of 1000 to 10000 nM.

Consider `CCN(c1ccc(CCOC(=O)C2=C(C)NC(=S)NC2CO)cc1[N+](=O)[O-])C1CC1` (stereo not shown) [94″, 4-Hydroxymethyl-6-methyl-2-thioxo-1,2,3,4-tetrahydro-pyrimidine-5-carboxylic acid 2-[4-(cyclopropyl-ethyl-amino)-3-nitro-phenyl]-ethyl ester], for which the IC50 is 800 nM under setting [1] and below 1000 nM under setting [2]. Take `CC1=C(C(=O)OCCCCSc2nc3ccccc3s2)C(CF)NC(=S)N1` (stereo not shown) [55′, 4-fluoromethyl-6-methyl-2-thioxo-1,2,3,4-tetrahydro-pyrimidine-5-carboxylic acid 4-(benzothiazol-2-ylsulfanyl)-butyl ester]: the 50% inhibitory concentration (IC50) is, setting by setting: under setting [1], 1600 nM; under setting [2], 1000 to 10000 nM. For `CC1=C(C(=O)OCCc2cccc(Cl)c2)C(CF)NC(=S)N1` (stereo not shown) [70′, 4-fluoromethyl-6-methyl-2-thioxo-1,2,3,4-tetrahydro-pyrimidine-5-carboxylic acid 2-(3-chloro-phenyl)-ethyl ester], the concentration for half-maximal inhibition (IC50) was 1000 nM under setting [1] and below 1000 nM under setting [2]. On the same counts, the results for `CC1=C(C(=O)OC2Cc3cscc3C2)CNC(=S)N1` [11′, 6-methyl-2-thioxo-1,2,3,4-tetrahydro-pyrimidine-5-carboxylic acid 5,6-dihydro-4H-cyclopenta[c]thiophen-5-yl ester] are 77000 nM and above 20000 nM. With `CC1=C(C(=O)OCCc2ccoc2)CNC(=S)N1` [Compound 254, 6-methyl-2-thioxo-1,2,3,4-tetrahydro-pyrimidine-5-carboxylic acid 2-furan-3-yl-ethyl ester], the 50% inhibitory concentration (IC50) reads like this: under setting [1], 3000 nM; under setting [2], 1000 to 10000 nM. Take `CC1=C(C(=O)OCCCc2ccccc2)C(CO)NC(=S)N1` (stereo not shown) [14″, 4-hydroxymethyl-6-methyl-2-thioxo-1,2,3,4-tetrahydro-pyrimidine-5-carboxylic acid 3-phenyl-propyl ester]: the IC50 reads like this: under setting [1], 2600 nM; under setting [2], 1000 to 10000 nM.

In the case of `CC1=C(C(=O)OCc2nc3ccccc3o2)CNC(=S)N1` [Compound 238, 6-methyl-2-thioxo-1,2,3,4-tetrahydro-pyrimidine-5-carboxylic acid benzoxazol-2-ylmethyl ester], the half-inhibitory concentration (IC50) by setting is: under setting [1], 3000 nM; under setting [2], 1000 to 10000 nM. For the compound `CC1=C(C(=O)OCCc2ccc(Cl)c(C(F)(F)F)c2)C(CO)NC(=S)N1` (stereo not shown) [67″, 4-hydroxymethyl-6-methyl-2-thioxo-1,2,3,4-tetrahydro-pyrimidine-5-carboxylic acid 2-(4-chloro-3-trifluoromethyl-phenyl)-ethyl ester], the IC50 is, setting by setting: under setting [1], below 400 nM; under setting [2], below 1000 nM.

Turning to `CC1=C(C(=O)OCCc2cccc(Cl)c2)C(COC(=O)NCCN(C)C)NC(=S)N1` (stereo not shown) [86″, 4-(2-dimethylamino-ethylcarbamoyloxymethyl)-6-methyl-2-thioxo-1,2,3,4-tetrahydro-pyrimidine-5-carboxylic acid 2-(3-chloro-phenyl)-ethyl ester trifluoroacetate], the IC50 was 700 nM (Hepatitis C virus, 72 h) and below 1000 nM (Hepatitis C virus, 72 h, read-out: Level (IC50 values classified)). Consider `CC1=C(C(=O)OCC2CC=CCC2)C(CF)NC(=S)N1` (stereo not shown) [44′, 4-fluoromethyl-6-methyl-2-thioxo-1,2,3,4-tetrahydro-pyrimidine-5-carboxylic acid cyclohex-3-enylmethyl ester], for which the 50% inhibitory concentration (IC50) is, setting by setting: under setting [1], 2800 nM; under setting [2], 1000 to 10000 nM. Regarding `CC1=C(C(=O)OCc2ccc(SC(F)(F)F)cc2)CNC(=S)N1` [Compound 199, 6-methyl-2-thioxo-1,2,3,4-tetrahydro-pyrimidine-5-carboxylic acid 4-trifluoromethylsulfanyl-benzyl ester], the IC50 under setting [1] was below 400 nM and the IC50 under setting [2] is below 1000 nM.

`CCCCC(C)OC(=O)C1=C(C)NC(=S)NC1` (stereo not shown) [Compound 39, 6-methyl-2-thioxo-1,2,3,4-tetrahydro-pyrimidine-5-carboxylic acid 1-methyl-pentyl ester]: the half-inhibitory concentration (IC50) was 500 nM under setting [1] and below 1000 nM under setting [2]. In the case of `CC1=C(C(=O)OCCCc2ccsc2F)C(CO)NC(=S)N1` (stereo not shown) [13″, 4-hydroxymethyl-6-methyl-2-thioxo-1,2,3,4-tetrahydro-pyrimidine-5-carboxylic acid 3-(2-fluoro-thiophen-3-yl)-propyl ester], the IC50 by setting is: under setting [1], 5300 nM; under setting [2], 1000 to 10000 nM.

With `CC1=C(C(=O)OCc2noc(C)n2)CNC(=S)N1` [30′, 6-methyl-2-thioxo-1,2,3,4-tetrahydro-pyrimidine-5-carboxylic acid 5-methyl-[1,2,4]oxadiazol-3-ylmethyl ester], the IC50 under setting [1] was above 100000 nM and the half-inhibitory concentration (IC50) under setting [2] was above 20000 nM.
